# Data taken from patent US4886806A, “Flavone-3-carboxylic acids compounds and pharmaceutical compositions containing them” (Kali-Chemie Pharma GmbH, priority 1987, dated 1989).
# Test system: oxygen radical-forming activity of activated peritoneal exudate cells (PEC) of mice
# Test: Peak chemiluminescence (CL) test: inhibition of oxygen radical liberation from activated peritoneal exudate cells
# Type: cell-based
# Settings: 10^-4 Mol substance/l, added at peak of cell activity
# Description: 1. To determine the inhibiting effect on the oxygen radical-forming activity of inflamed cells, the in vitro inhibition of the release of oxygen radicals from activated peritoneal exudate cells (=PEC) of mice was determined in the chemiluminescence (CL) test according to the method of Mueller-Peddinghaus (Int. J. Immunopharmac. 6, 455-466 (1984)). […] The intensity of the chemiluminescence is a measurement of the oxygen radical content in the suspension and thus the degree of activity of the inflamed cells. In this, three functionally different parameters are detected, the spontaneous CL, the induced CL and the peak CL. The spontaneous CL and the induced CL on the one hand and the peak CL on the other hand differ from each other because in the first two parameters the test substances are in contact with the cells for a 30 minute preincubation period before the inflammation irritant is added, whereas with the peak CL the cells are first stimulated, and the test substance is added at the peak of their activity. The measurement of the spontaneous CL thus detects the influence of the test substance on the relative rest activity of inflamed cells, the induced CL represents the effect of the test substances on the activatability of the cells and the inhibition of the peak CL indicates the effect of the test substances on the maximum activity of the inflamed cells. 1.1 Production of PEC suspension used in the test. In order to induce the PEC formation, female mice of 20-25 g body weight were each injected i.p. with 2 ml of a 3% solution of thioglycollate in sterile isotonic sodium chloride solution. Twenty four hours after the thioglycollate injection the cells, which predominantly consisted of polymorphonuclear leucocytes, were recovered by washing out of the abdominal cavity and washed twice. As cell culture medium there was added a commercially available solution under the designation RPMI 1640 (pH 7.2) (produced by Flow Laboratories, […], Germany), which contains 10% fetal calf serum (FCS, produced by Seromed GmbH, Munich, Germany) 18 μmol/l sodium bicarbonate and 2 μmol/l L-glutamine. The cell pellets of four animals each time were resuspended in cell culture medium, collected together and the suspension was made up to 2×10^6 cells per ml with cell culture medium. The cell suspensions were kept under ice cooling until their use the same day. 1.2 Production of the complement opsonized zymosan (=ZyC3 b) suspension used for activation. 200 mg zymosan (glycoprotein mixture isolated from the cell walls of brewer's yeast, Sacchomyces […], produced by Sigma Chemical Co., Munich, Germany) were suspended in 10 ml phosphate buffer solution according to Dulbecco (produced by Flow Laboratories, […], Germany), well stirred and heated for thirty minutes in a water bath to 100° C. After cooling, it was centrifuged for five minutes at 4° C. and at 600 ×g and the supernatant was discarded. The sediment was resuspended in 50 ml human serum and incubated for thirty minutes at 37° C. in a shaking water bath. Then it was centrifuged for five minutes at 600 ×g and 420 C., the supernatant decanted and the sediment washed with phosphate buffer solution. The working suspension of 8×10^-3 g ZyC3 b/ml was produced from the sediment by dilution with phosphate buffer solution (Mueller-Peddinghaus et al., Zbl. Vet. Med. B. 30, 559-575). 1.3 Chemiluminescence (CL) measurement (Peak-CL). The PEC suspension was divided into samples of 100 μl each, placed in test tubes, and these were incubated for ten minutes at a temperature of 3720 C. in a measurement device (Chemiluminescence analyzer, Laboratorium Prof. Berthold, Wildbad, Germany). Then in order to amplify the chemiluminescence, 100 μl lucigenin solution was added (final concentration 1.54×10^-4 mol/l) and incubated for 16 more minutes. The cells were then activated by the addition of 100 μl of the ZyC3 b suspension produced as described in section 1.2 plus 100 μl phosphate buffer solution. […]
row,Structure (SMILES),"Inhibition in vitro of the oxygen radical liberation, Chemiluminescence Test % inhibition, Pk. CL [%]"
1,"COc1cc(-c2oc3ccccc3c(=O)c2C(=O)N2CCN(c3ccccn3)CC2)cc(OC)c1OC [Example 7a, 3',4',5'-trimethoxy-3-{[4-(2-pyridyl)-piperazin-1-yl]-carbonyl}flavone]",68
2,"COc1cc(-c2oc3ccccc3c(=O)c2C(=O)N2CCN(c3ccccn3)CC2)cc(OC)c1OC [Example 7b, 3',4',5'-trimethoxy-3-{[4-(2-pyridyl)-piperazin-1-yl]-carbonyl}flavone]",44

# Same assay, conditions: Mus musculus, 10^-4 Mol substance/l, added at peak of cell activity, read-out: Inhibition in vitro of the oxygen radical liberation, Chemiluminescence Test % inhibition, Pk. CL
row,Structure (SMILES),inhibition at 100 µM (stock) [%]
1,"Cl.O=C(c1c(-c2ccccc2)oc2ccccc2c1=O)N1CCN(c2ccccn2)CC1 [Example 1c, 3-{[4-(2-Pyridyl)-piperazin-1-yl]-carbonyl}flavone hydrochloride]",47
2,"O.O=C(O)C(O)C(O)C(=O)O.O=C(c1c(-c2ccccc2)oc2ccccc2c1=O)N1CCN(Cc2ccccc2)CC1 [Example 2b, 3-[(4-benzyl-piperazin-1-yl)-carbonyl]flavone tartrate monohydrate]",58
3,"CCN(CC)CCCOC(=O)c1c(-c2ccccc2)oc2ccccc2c1=O.Cl [Example 3b, 3-[3-(diethylamino)propoxycarbonyl]flavone hydrochloride]",61
4,"O=C(NCCCCN1CCN(c2ccccn2)CC1)c1c(-c2ccccc2)oc2ccccc2c1=O [Example 4e, 3-{4-[4-(2-pyridyl)-piperazin-1-yl]-butylaminocarbonyl}flavone]",76
5,"O.O.O=C(O)C(O)C(O)C(=O)O.O=C(c1c(-c2cc(O)c(O)c(O)c2)oc2ccccc2c1=O)N1CCN(Cc2ccccc2)CC1 [Example 14e, 3',4',5'-trihydroxy-3-[(4-benzylpiperazin-1-yl)carbonyl] -flavone tartrate dihydrate]",99
6,CN1CCN(CCCCNC(=O)c2c(-c3ccccc3)oc3ccccc3c2=O)CC1 [Example 24],1
7,O=C(c1c(-c2cccc(O)c2)oc2ccccc2c1=O)N1CCN(Cc2ccccc2)CC1 [Example 30],85
8,COc1ccc(-c2oc3ccccc3c(=O)c2C(=O)N2CCN(c3ccccn3)CC2)cc1OC [Example 32b],56
9,COc1cc(OC)c2c(=O)c(C(=O)N3CCN(c4ccccn4)CC3)c(-c3ccccc3)oc2c1 [Example 34],25
10,CC(=O)Oc1cc(-c2oc3ccccc3c(=O)c2C(=O)N2CCN(c3ccccn3)CC2)cc(OC(C)=O)c1OC(C)=O [Example 39b],99
11,O=C(NCCc1ccccn1)c1c(-c2cc(O)c(O)c(O)c2)oc2ccccc2c1=O [Example 53],77
12,COc1cc(-c2oc3ccccc3c(=O)c2C(=O)NCCCCN2CCN(c3ncccn3)CC2)cc(OC)c1OC [Example 54],72
